Experimental data reported in PMC9022726 (International journal of biological macromolecules, 2021).

Molecular target: tau K18 (Homo sapiens, UniProt P10636)
Test: intrinsic fisetin fluorescence titration
Assay type: binding

Sequence of tau K18 (P10636 561-689): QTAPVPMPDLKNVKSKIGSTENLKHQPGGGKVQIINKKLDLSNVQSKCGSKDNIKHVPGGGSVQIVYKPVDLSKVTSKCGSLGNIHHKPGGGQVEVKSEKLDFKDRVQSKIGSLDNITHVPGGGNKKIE

- Kd: 22.6 ± 1.81 µM
Compound: O=c1c(O)c(-c2ccc(O)c(O)c2)oc2cc(O)ccc12 [fisetin]
